Measurements reported in patent US20210290732A1, “GLP-1R and GCGR Agonists, Formulations, and Methods of Use” (Spitfire Pharma LLC, priority 2020, published 2021).
Where “and” joins values, the source holds several entries; their conditions need not be identical. Equal values may be shown once. Read-outs that look alike come from different tables or passages of the source.

What was measured:
DIO-NASH mice = experiment: DIO-NASH mouse study, 12 weeks of QD dosing; assay type: in vivo
Protocol: All mice entering the experiment have been pre-biopsied, stratified based on liver biopsy (only animals with fibrosis 1 or above and steatosis 2 or above are included) animals stratified into groups based on Col1a1 immunostaining. […] Body weight (BW) was measured daily for the entire study period, food intake daily for the first 14 days then weekly until study end. Terminal plasma was measured for ALT/AST/TG/TC levels. Terminal liver removal and sampling was carried out for pre to post NAFLD Activity Score (NAS; HE staining) including Fibrosis Stage (Picrosirius red, PSR). Terminal histology was carried out for steatosis, Col1a1 and galectin-3 quantitation. Terminal liver workup included TG+TC (extraction and measurement). Terminal liver biopsies were set up in: 1) 4% PFA for histology, 2) fresh frozen liver for biochemistry, 3) fresh frozen liver for RNA extraction and RNAseq.

[1] = CMC of Polysorbate 80 in F58 buffer pH 7.7 with added ALT-801 by surface tensiometry; assay type: physicochemical
From the text: CMC shifts are simply calculated as CMC in the presence of the ALT-801 less the CMC for the surfactant alone in solution.

human GLP-1R = target: T1, human GLP-1R (Homo sapiens, UniProt P43220); experiment: cAMP receptor activation assay, human GLP-1R cloned into CHO cells (DiscoverX LeadHunter / cAMP Hunter); assay type: cell-based
T1 construct: host or cells: CHO-K1
Protocol: (§1) Cellular assays were carried out using standard cellular assays (DiscoveRx, LeadHunter assays) using readout of cAMP stimulation or arrestin activation. Compounds were weighed precisely in an amount of approximately 1 mg and shipped to DiscoverX (Fremont, Calif.) for dilution and assay. […] Assays were carried out in the presence of 0.1% ovalbumin. […] Use of 0.1% ovalbumin can avoid this problem.
(§2) Assays were carried out in the presence of 0.1% ovalbumin. […] Use of 0.1% ovalbumin can avoid this problem.
(§3) Receptor activation assays were performed at DiscoverX laboratories (Fremont, Calif.) using human GLP-1R and GCGR cloned into Chinese Hamster Ovary (CHO) cells (LeadHunter Discovery Services; assay product 86-0007D cAMP Hunter™ using huGLP1R and huGCGR; whole cell cAMP accumulation assays; cell lines used were cAMP Hunter™ CHO-K1 GCGR Gs Cell Line, catalog 95-0042C2 and cAMP Hunter™ CHO-K1 GLP1 Gs Cell Line, catalog 95-0062C2; readout of accumulated cAMP was made using readout HitHunter cAMP XS+ assay). Cell lines are maintained at DiscoverX and were incubated with test agents for 30 m at 37° C. for accumulation of cAMP. […] Results described herein are from single assays performed on cells in duplicate and data were replotted in Prism 5 to provide pEC50 (SE) data.
(§4) In vitro data are presented as pEC50 (SE) determined in Prism 5 by nonlinear regression analysis of the raw fluorescence data normalized by corresponding response to internal standards (see Supporting Information for data plots).

GCGR = GCGR (Homo sapiens, UniProt P47871); experiment: cAMP receptor activation assay, human GCGR cloned into CHO cells (DiscoverX LeadHunter / cAMP Hunter); assay type: cell-based; design: host or cells: CHO-K1; conditions: for EC50: cAMP, CHO cells
GCGR, sequence (P47871 26-477): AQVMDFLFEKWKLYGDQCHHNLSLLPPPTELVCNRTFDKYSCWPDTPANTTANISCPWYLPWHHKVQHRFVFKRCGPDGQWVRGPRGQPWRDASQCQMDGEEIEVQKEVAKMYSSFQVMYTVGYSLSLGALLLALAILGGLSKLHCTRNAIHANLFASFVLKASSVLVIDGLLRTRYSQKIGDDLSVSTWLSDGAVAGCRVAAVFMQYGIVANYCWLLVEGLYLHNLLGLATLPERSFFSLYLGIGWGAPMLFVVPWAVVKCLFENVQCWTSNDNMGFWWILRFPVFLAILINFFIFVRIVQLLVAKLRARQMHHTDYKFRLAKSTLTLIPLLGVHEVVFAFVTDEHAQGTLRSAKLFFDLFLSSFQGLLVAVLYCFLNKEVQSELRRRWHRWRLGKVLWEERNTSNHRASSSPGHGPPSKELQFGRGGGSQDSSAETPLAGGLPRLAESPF
Protocol: as §1, §2, §3, §4

T1 sequence (P43220 24-463): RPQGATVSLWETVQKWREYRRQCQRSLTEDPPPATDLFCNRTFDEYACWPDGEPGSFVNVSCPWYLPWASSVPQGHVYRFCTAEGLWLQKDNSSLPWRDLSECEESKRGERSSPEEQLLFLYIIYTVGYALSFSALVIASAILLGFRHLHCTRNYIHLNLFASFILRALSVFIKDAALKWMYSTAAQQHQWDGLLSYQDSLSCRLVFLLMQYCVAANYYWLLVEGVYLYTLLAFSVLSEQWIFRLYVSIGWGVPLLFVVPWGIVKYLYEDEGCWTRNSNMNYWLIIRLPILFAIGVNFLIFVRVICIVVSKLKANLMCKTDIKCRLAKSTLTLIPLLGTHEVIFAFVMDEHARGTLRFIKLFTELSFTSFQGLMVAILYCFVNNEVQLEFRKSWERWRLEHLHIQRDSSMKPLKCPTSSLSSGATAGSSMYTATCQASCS

## CSc1ccc(C(=O)/C=C/c2cc(C)c(OC(C)(C)C(=O)O)c(C)c2)cc1 [elafibranor]
DIO-NASH mice; ALT-801 5 and 10 nmol/kg, elafibranor 78 μmol/kg, semaglutide 10 nmol/kg
  body weight compared to NASH control (p≤0.001): statistically significantly decreased body weight
DIO-NASH mice; NASH mice, 78 μmol/kg PO QD, 12 weeks
  NAFLD activity score (NAS) reduction compared to the start of treatment: 42%
DIO-NASH mice; NASH mice, liver RNAseq
  expression of cell death genes vs NASH vehicle control: No statistical differences
  expression of genes affecting fat usage and transport vs NASH vehicle control: significantly lower GPAT2 (p<0.001) and GPAT4 (p<0.001)
  expression of liver inflammation genes (FOSB, JUN, TLR4) vs NASH vehicle control: No statistically significant changes
DIO-NASH mice; NASH mice, high dose ALT-801, elafibranor, semaglutide
  number of differentially expressed genes (liver RNA sequencing): ~5800

## Polysorbate 80
[1]; 5.0 mg/ml ALT-801
  CMC Shift Due to ALT-801: 5.16 mg/mL
  Extent of Interaction mg PS80/mg ALT-801: 1.03 mg/mg
  Extent of Interaction moles PS80/molesALT-801: 3.05 mole/mole
[1]; 10.0 mg/ml ALT-801
  CMC Shift Due to ALT-801: 10.32 mg/mL
  Extent of Interaction mg PS80/mg ALT-801: 1.03 mg/mg
  Extent of Interaction moles PS80/molesALT-801: 3.05 mole/mole
[1]; F58 buffer pH 7.7, 5.0 mg/ml ALT-801
  Polysorbate 80 CMC Value 5.0 mg/ml ALT-801, Average: 5.34 mg/mL
[1]; F58 buffer pH 7.7, 5.0 mg/ml ALT-801, single test
  Polysorbate 80 CMC Value 5.0 mg/ml ALT-801: 5.35 mg/mL and 5.33 mg/mL
[1]; F58 buffer pH 7.7, 10.0 mg/ml ALT-801
  Polysorbate 80 CMC Value 10.0 mg/ml ALT-801, Average: 10.50 mg/mL
[1]; F58 buffer pH 7.7, 10.0 mg/ml ALT-801, single test
  Polysorbate 80 CMC Value 10.0 mg/ml ALT-801: 10.49 mg/mL and 10.50 mg/mL
[1]; F58 buffer pH 7.7, no ALT-801
  Polysorbate 80 CMC Valve No ALT-801, Average: 0.183 mg/mL
[1]; F58 buffer pH 7.7, no ALT-801, single test
  Polysorbate 80 CMC Valve No ALT-801: 0.182 mg/mL and 0.183 mg/mL
[1]; […] ALT-801
  Extent of Interaction mg PS80/mg ALT-801: 1.03 mg/mg
  Extent of Interaction moles PS80/molesALT-801: 3.05 mole/mole

## CCCCCCCCCCCCCCO[C@@H]1O[C@H](C(=O)NCCCC[C@H](N)C(=O)NCCCC[C@H](NC(=O)[C@@H](NC(=O)[C@H](Cc2ccccc2)NC(=O)[C@H](CCC(=O)O)NC(=O)[C@@H]2CCCCNC(=O)CC[C@H](NC(=O)[C@H](CC(=O)O)NC(=O)[C@H](CC(C)C)NC(=O)[C@H](Cc3ccc(O)cc3)NC(=O)[C@H](CCCCN)NC(=O)[C@H](CO)NC(=O)[C@H](Cc3ccc(O)cc3)NC(=O)[C@H](CC(=O)O)NC(=O)[C@H](CO)NC(=O)[C@@H](NC(=O)[C@H](Cc3ccccc3)NC(=O)[C@@H](NC(=O)CNC(=O)[C@H](CCC(N)=O)NC(=O)C(C)(C)NC(=O)[C@@H](N)Cc3c[nH]cn3)[C@@H](C)O)[C@@H](C)O)C(=O)N[C@@H](CCC(N)=O)C(=O)N[C@@H](C)C(=O)N[C@@H](C)C(=O)N2)[C@@H](C)CC)C(=O)N[C@@H](Cc2c[nH]c3ccccc23)C(=O)N[C@@H](CC(C)C)C(=O)N[C@@H](CC(C)C)C(=O)N[C@@H](CCC(N)=O)C(=O)N[C@H](C(N)=O)[C@@H](C)O)[C@@H](O)[C@H](O)[C@H]1O [analogue 13]
Human GLP-1R; SR = GCGR EC50/GLP-1 EC50, 0.1% BSA
  Selectivity Ratio GLP-1R vs GCGR: 5
Human GLP-1R; cAMP, CHO cells, 0.1% BSA containing buffers, read-out: pEC50 (SE) hu GLP-1 (converted)
  EC50: 0.0372 nM
GCGR
  Selectivity Ratio (SR=GCGR EC50/GLP-1 EC50): 5

## CCCCCCCCCCCCO[C@@H]1O[C@H](C(=O)O)[C@@H](O[C@H]2O[C@H](C(=O)NCCCC[C@H](NC(=O)[C@@H](NC(=O)[C@H](Cc3ccccc3)NC(=O)[C@H](CCC(=O)O)NC(=O)[C@@H]3CCCCNC(=O)CC[C@H](NC(=O)[C@H](CC(=O)O)NC(=O)[C@H](CC(C)C)NC(=O)[C@H](Cc4ccc(O)cc4)NC(=O)[C@H](CCCCN)NC(=O)[C@H](CO)NC(=O)[C@H](Cc4ccc(O)cc4)NC(=O)[C@H](CC(=O)O)NC(=O)[C@H](CO)NC(=O)[C@@H](NC(=O)[C@H](Cc4ccccc4)NC(=O)[C@@H](NC(=O)CNC(=O)[C@H](CCC(N)=O)NC(=O)C(C)(C)NC(=O)[C@@H](N)Cc4c[nH]cn4)[C@@H](C)O)[C@@H](C)O)C(=O)N[C@@H](CCC(N)=O)C(=O)N[C@@H](C)C(=O)N[C@@H](C)C(=O)N3)[C@@H](C)CC)C(=O)N[C@@H](Cc3c[nH]c4ccccc34)C(=O)N[C@@H](CC(C)C)C(=O)N[C@@H](CC(C)C)C(=O)N[C@@H](CCC(N)=O)C(=O)N[C@H](C(N)=O)[C@@H](C)O)[C@@H](O)[C@H](O)[C@H]2O)[C@H](O)[C@H]1O [analogue 7]
Human GLP-1R
  EC50: 0.0501 nM
GCGR; 0.1% BSA containing buffers, read-out: pEC50 (SE) huGCGR (converted)
  EC50: 0.0148 nM

## CC[C@H](C)[C@H](NC(=O)[C@H](Cc1ccccc1)NC(=O)[C@H](CCC(=O)O)NC(=O)[C@@H]1CCCCNC(=O)CC[C@H](NC(=O)[C@H](CC(=O)O)NC(=O)[C@H](CC(C)C)NC(=O)[C@H](Cc2ccc(O)cc2)NC(=O)[C@H](CCCCN)NC(=O)[C@H](CO)NC(=O)[C@H](Cc2ccc(O)cc2)NC(=O)[C@H](CC(=O)O)NC(=O)[C@H](CO)NC(=O)[C@@H](NC(=O)[C@H](Cc2ccccc2)NC(=O)[C@@H](NC(=O)CNC(=O)[C@H](CCC(N)=O)NC(=O)C(C)(C)NC(=O)[C@@H](N)Cc2c[nH]cn2)[C@@H](C)O)[C@@H](C)O)C(=O)N[C@@H](CCC(N)=O)C(=O)N[C@@H](C)C(=O)N[C@@H](C)C(=O)N1)C(=O)N[C@@H](CCCCNC(=O)[C@H]1O[C@@H](OCCCCCCCCCCCCCCCCCC(=O)O)[C@H](O)[C@@H](O)[C@@H]1O)C(=O)N[C@@H](Cc1c[nH]c2ccccc12)C(=O)N[C@@H](CC(C)C)C(=O)N[C@@H](CC(C)C)C(=O)N[C@@H](CCC(N)=O)C(=O)N[C@H](C(N)=O)[C@@H](C)O [analogue 16]
Human GLP-1R; 0.1% BSA in assay buffer, read-out: EC50 GLP-1R
  EC50: 1.27 nM
GCGR; 0.1% OVA containing buffers, read-out: EC50 hGCGR
  EC50: 0.086 nM
